Test results taken from US8628961B2, “Small molecule antagonists of phosphatidylinositol-3,4,5-triphosphate (PIP3) and uses thereof” (Tufts University, priority 2010, dated 2014).

Legend:
[1] = test system: PI3K/PDK1/Akt signaling pathway; assay: PIP3-dependent phosphorylation events in HUVEC, Western blotting; type: cell-based, human; details: 50, 100 and 200 μM, 2 hr, bFGF
Description: Endothelial cell migration plays a central role in tumor angiogenesis. Avraamides C J et al. (2008) Nat Rev Cancer 8:604-17. […] First, human umbilical vein endothelial cells (HUVEC) cells were serum starved overnight, and treated with different concentrations of PIT-1 (50, 100 and 200 μM) for 2 hr, followed by stimulation with 10 ng/ml bFGF for 15 min, and the PIP3-dependent phosphorylation events were evaluated by Western blotting.

[2] = test system: SV40-transformed mouse adult lung fibroblasts; assay: Viability of Akt1-expressing versus Akt1-3 triple knockout fibroblasts; type: cell-based
Text: Shaughnessy J D (2008) Nature 454:172-3; Weinstein I G (2002) Science 297:63-4. Therefore, the possibility that PIT-1 may cause preferential cell death in the cells containing elevated PIP3 levels was examined. […] Li D M et al. (1998) Proc Natl Acad Sci USA 95:15406-11. […] Neshat M S et al. (2001) Proc Natl Acad Sci USA 98:10314-9.

[3] = test system: PTEN-deficient U87MG cells; assay: Sytox cell death assay, U87MG re-expressing wild-type or R130M mutant PTEN; type: cell-based, human; details: 25, 50, 100 μM, 48 hr
Description: After treatment with 25, 50, or 100 μM PIT-1 for 48 hr, cell death was analyzed using Sytox cell death assay.
Based on the critical role of PIP3-dependent […] signaling in the regulation of cell survival, the effect of PIT-1 on the cancer cell viability was tested. Cancer cells were seeded into 96-well plates (white plates for ATP assay; black plates for fluorescent assay; clear plates for MTS assay) at the density of 5-10×10^3 cells per well in 100 μl of the appropriate media. Compounds were added at a series of concentrations and incubated for different times. For the ATP assay, a luminescence-based commercial kit (CellTiter-Glo, Promega, Madison, Wis.) was used. Thirty microliters of cell lysis/ATP detection reagent was added to each well, mixed for 10 min at room temperature, and the luminescence was measured using a Wallac Victor 3 plate reader (Perkin-Elmer, Wellesley, Mass.). […] Twenty microliters of the combined MTS/PMS solution was added into each well, incubated for 4 hr at 37° C., and the absorbance at 490 nm was measured using a Wallac Victor 3 plate reader. For the Sytox cell death assay, measuring loss of plasma membrane integrity, cells were incubated with 1 μM Sytox Green reagent (Molecular Probes, Eugene, Oreg.) for 30 min at 37° C. and the fluorescence intensity was measured using Wallac Victor 3 plate reader with excitation at 485 nm and emission at 545 nm. […]

HUVEC cells = assay: HUVEC migration, wound healing and transwell assays; type: cell-based, human
Description: Two models of cell migration were used, a transwell migration model and a wound closure model. Migration of cancer and endothelial cells was evaluated using 24-transwell Boyden chamber (Costar, Bedford, Mass.) with a polystyrene membrane (6.5 mm diameter, 10 μm thickness, and 8 μm pore size). Cells were suspended in serum-free media and seeded in the upper compartment of each well (2×10^4 cells/well) in the presence or absence of different compounds at the indicated concentrations. The lower compartment contained 600 μl of serum-free culture media supplemented with growth factors. After an 8-hr incubation at 37° C., cells were fixed and stained with 0.1% crystal violet. Non-migrating cells on the upper surface of the filter were removed, and the stained cells that migrated to the lower side were photographed using a phase-contrast microscope (Nikon, Japan) in five random fields. The cells were lysed with 10% acetic acid, and colorimetric determination was made at 595 nm using Wallac Victor 3 plate reader.
Cancer or endothelial cells were seeded into fibronectin-coated 96-well plates (2×10^4 cells/well). […]
Second, HUVEC were serum starved and treated with PITs (25, 50 100 μM) or PIT-1 is (100 μM) for 8 hr, followed by bFGF (10 ng/ml) stimulation for 15 min. […] The number of cell ruffles/lamellipodia was counted in five random fields.

SMILES: O=C(NC(=S)Nc1cc([N+](=O)[O-])cc(Cl)c1O)c1ccccc1 [PIT-1]
- PI3K/PDK1/Akt signaling in HUVEC [1]: capable of blocking PI3K/PDK1/Akt signaling pathway
- loss of viability in Akt1-expressing versus Akt1-3 triple knockout fibroblasts [2]: more pronounced (P<0.01)
- toxicity in U87MG lacking PTEN activity versus wild-type PTEN [3]: more pronounced in PTEN-deficient U87MG cells lacking PTEN activity
- migration of HUVEC cells (HUVEC cells): efficiently blocked migration of HUVEC cells
